# From ChEMBL document CHEMBL2169824, “The many faces of the adamantyl group in drug design” (Eur J Med Chem, 2011)
# Assays:
# Mus musculus = test: Anticonvulsant activity in mouse at 30 mg/kg; assay type: functional
# Carbonic anhydrase 2 = Carbonic anhydrase 2 (Homo sapiens, UniProt P00918); test: Inhibition of human CA2
# [1] = system: Mycobacterium tuberculosis; test: Antimicrobial activity against Mycobacterium tuberculosis H37Rv; assay type: functional
# [2] = Volume of distribution in mouse; assay type: ADME, organism-based; details: in vivo
# Vitamin D3 receptor = biological target: T1, Vitamin D3 receptor (Homo sapiens, UniProt P11473); test: Transactivation of VDR expressed in COS7 cells assessed as reduction in 1,25-dihydroxyvitamin D3-induced transcriptional activity by transient transcription assay; assay type: cell-based, COS-7
# T1 sequence (P11473 whole entry): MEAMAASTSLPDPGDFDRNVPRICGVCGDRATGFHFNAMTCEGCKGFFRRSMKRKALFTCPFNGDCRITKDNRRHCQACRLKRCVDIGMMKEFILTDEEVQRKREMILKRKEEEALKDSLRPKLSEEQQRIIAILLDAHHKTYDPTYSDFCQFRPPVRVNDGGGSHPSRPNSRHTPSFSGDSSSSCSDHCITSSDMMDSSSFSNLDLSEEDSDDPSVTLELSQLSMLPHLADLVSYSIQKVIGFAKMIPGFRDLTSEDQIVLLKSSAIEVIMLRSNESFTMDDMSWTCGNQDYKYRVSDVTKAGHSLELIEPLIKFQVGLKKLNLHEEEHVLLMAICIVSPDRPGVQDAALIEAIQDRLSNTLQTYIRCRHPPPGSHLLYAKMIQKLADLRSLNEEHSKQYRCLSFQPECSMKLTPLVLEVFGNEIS
# [3] = Displacement of [125I]neurotensin from neurotensin receptor 1 in guinea pig brain; set-up: species or system Cavia porcellus
# Mu-type opioid receptor = Mu-type opioid receptor (Homo sapiens, UniProt P35372); test: Antagonist activity at MOR; assay type: functional
# [4] = biological target: Delta-type opioid receptor (Homo sapiens, UniProt P41143); test: Antagonist activity at DOR; assay type: functional
# [5] = Solubility in water; assay type: physicochemical
# [6] = Inhibition of Beta-glucocerebrosidase G202R mutant in cell based assay
# [7] = system: T2, Lysosomal acid glucosylceramidase (Homo sapiens), P04062 [N409S]; test: Inhibition of Beta-glucocerebrosidase N370S mutant in cell based assay
# T2 sequence (whole entry): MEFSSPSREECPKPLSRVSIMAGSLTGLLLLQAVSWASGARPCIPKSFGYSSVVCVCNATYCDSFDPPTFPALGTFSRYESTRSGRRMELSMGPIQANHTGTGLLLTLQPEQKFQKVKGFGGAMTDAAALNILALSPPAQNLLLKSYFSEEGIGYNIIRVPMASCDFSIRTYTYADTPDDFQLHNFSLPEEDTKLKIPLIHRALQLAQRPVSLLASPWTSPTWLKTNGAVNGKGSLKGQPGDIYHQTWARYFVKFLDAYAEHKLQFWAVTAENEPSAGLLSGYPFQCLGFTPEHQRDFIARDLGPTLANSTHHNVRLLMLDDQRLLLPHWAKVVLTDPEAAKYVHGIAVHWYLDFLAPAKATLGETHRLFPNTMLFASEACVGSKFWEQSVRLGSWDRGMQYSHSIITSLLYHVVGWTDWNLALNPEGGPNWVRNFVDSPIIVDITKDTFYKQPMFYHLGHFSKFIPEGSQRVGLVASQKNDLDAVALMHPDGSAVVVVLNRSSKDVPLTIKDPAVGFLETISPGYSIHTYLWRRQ
# [8] = biological target: T3, Mediator of RNA polymerase II transcription subunit 23 (Homo sapiens, UniProt Q9ULK4); test: Binding affinity to Sur2
# T3 sequence (Q9ULK4 whole entry): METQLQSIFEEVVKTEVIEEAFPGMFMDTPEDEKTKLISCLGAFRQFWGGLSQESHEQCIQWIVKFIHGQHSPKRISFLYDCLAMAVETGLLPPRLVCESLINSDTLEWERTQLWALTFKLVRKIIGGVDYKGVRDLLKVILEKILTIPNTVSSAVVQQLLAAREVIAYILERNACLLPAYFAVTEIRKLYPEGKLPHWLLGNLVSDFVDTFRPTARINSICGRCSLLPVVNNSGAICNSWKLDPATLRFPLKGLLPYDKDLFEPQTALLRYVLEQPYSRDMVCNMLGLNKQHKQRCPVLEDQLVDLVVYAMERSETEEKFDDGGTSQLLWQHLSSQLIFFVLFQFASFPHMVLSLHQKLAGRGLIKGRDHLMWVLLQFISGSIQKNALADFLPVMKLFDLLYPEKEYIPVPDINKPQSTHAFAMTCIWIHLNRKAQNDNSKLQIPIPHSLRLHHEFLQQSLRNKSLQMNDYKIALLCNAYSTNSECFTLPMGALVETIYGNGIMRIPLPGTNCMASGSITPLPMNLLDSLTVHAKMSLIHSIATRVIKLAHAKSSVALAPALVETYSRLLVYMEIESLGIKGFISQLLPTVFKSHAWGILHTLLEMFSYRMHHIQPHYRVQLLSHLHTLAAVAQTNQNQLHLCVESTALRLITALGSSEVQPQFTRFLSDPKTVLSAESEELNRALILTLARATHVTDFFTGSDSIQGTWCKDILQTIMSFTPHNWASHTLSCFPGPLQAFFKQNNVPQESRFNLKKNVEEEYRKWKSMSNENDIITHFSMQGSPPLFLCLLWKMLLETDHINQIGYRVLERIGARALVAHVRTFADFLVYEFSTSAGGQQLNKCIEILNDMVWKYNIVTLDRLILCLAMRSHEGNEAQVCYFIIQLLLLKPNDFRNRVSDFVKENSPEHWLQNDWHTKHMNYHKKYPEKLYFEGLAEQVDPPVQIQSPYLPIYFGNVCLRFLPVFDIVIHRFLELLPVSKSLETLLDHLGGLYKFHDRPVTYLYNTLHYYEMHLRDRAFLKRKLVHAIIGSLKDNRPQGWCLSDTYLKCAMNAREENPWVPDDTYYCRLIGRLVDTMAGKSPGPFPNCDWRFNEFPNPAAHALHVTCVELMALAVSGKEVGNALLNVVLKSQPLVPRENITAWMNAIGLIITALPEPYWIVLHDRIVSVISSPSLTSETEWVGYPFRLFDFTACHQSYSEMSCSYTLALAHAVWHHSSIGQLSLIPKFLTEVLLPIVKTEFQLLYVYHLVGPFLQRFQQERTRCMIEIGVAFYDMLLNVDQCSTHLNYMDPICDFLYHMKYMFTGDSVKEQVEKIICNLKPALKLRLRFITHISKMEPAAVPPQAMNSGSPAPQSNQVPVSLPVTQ
# [9] = Inhibition of globotriaosyl ceramide binding to Escherichia coli Verotoxin 1
# [10] = Protein binding in plasma; assay type: ADME, cell-free; details: read-out: PPB (converted)
# [11] = Drug excretion in human urine assessed as unchanged compound level; assay type: ADME; details: read-out: Drug excretion
# Enterococcus faecium = test: Antimicrobial activity against vancomycin-resistant Enterococcus faecium; assay type: functional
# Staphylococcus aureus = test: Antimicrobial activity against methicillin-resistant Staphylococcus aureus; assay type: functional
# HCT-116 = test: Antitumor activity against human HCT116 cells xenografted in athymic mouse assessed as reduction tumor size at 20 mg/kg, qd; assay type: functional; set-up: scale not given: the % may be the effect or the level left
# [12] = Half life in plasma; assay type: ADME, cell-free
# [13] = Ratio of drug level in liver to blood in human; assay type: ADME, tissue-based
# [14] = Drug elimination in po dosed human assessed as unchanged compound level; assay type: ADME, organism-based; details: in vivo, read-out: Drug excretion
# [15] = Half life in human plasma; assay type: ADME, cell-free
# Delta-type opioid receptor, sequence (P41143 whole entry): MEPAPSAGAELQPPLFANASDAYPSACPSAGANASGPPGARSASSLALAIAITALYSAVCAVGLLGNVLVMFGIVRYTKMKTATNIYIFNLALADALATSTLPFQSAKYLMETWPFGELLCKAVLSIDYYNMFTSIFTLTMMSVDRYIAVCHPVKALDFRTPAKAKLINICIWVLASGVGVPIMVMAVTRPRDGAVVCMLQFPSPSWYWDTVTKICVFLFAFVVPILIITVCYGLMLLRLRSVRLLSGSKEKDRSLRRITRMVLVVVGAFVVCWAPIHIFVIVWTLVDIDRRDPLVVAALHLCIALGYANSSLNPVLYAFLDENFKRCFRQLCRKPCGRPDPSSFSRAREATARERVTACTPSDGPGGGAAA
# Mu-type opioid receptor, sequence (P35372 whole entry): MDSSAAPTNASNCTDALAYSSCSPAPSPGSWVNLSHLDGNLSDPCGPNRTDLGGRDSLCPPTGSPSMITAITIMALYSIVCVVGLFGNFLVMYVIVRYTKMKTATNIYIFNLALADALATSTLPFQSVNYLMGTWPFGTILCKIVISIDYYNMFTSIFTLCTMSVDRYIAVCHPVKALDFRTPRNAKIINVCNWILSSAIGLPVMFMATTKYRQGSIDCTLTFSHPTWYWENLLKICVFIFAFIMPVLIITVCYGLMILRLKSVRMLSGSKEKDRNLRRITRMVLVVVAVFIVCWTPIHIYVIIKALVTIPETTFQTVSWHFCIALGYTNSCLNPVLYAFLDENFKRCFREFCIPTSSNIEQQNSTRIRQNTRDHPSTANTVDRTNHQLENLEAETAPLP
smiles,measurement,setting,value
NS(=O)(=O)c1nnc(NC(=O)OC23CC4CC(CC(C4)C2)C3)s1,Activity,Mus musculus,92%
same,Ki,Carbonic anhydrase 2,0.01 µM
CC(C)=CCC/C(C)=C/CNCCNC1C2CC3CC(C2)CC1C3 (stereo not drawn) [SQ109],MIC,[1],1.56 µM
same,Vd,[2],11.8 L/kg
C=C1[C@H](O)CC(=C/C=C2\CCC[C@]3(C)[C@@H]([C@H](C)/C=C/C[C@H](O)CC45CC6CC(CC(C6)C4)C5)CC[C@@H]23)C[C@H]1O,IC50,Vitamin D3 receptor,0.003 µM
COc1cccc(OC)c1-c1cc(C(=O)NC2(C(=O)O)C3CC4CC(C3)CC2C4)nn1-c1ccnc2cc(Cl)ccc12 (stereo not drawn) [REMINERTANT],IC50,[3],0.00099 µM
Cc1cc(O)cc(C)c1C[C@H](N)C(=O)N1Cc2ccccc2C[C@H]1C(=O)NC12C[C@H]3C[C@@H](C1)C[C@@H](C2)C3,Ki,Mu-type opioid receptor,0.0855 µM
same,Ki,[4],0.00124 µM
O=C(O)CCCCCCCCCCCNC(=O)NC12CC3CC(CC(C3)C1)C2,solubility,[5],19 µg/mL
O=C(CCCCCN1C[C@H](O)[C@@H](O)[C@H](O)[C@H]1CO)NC12CC3CC(CC(C3)C1)C2,INH,[6],> 1 µM
same,INH,[7],> 1 µM
Cc1ccc(S(=O)(=O)n2ccc3c(OCC(O)CN(CCCCCN)C(=O)N4CCC(C5CCN(C(=O)C67CC8CC(CC(C8)C6)C7)CC5)CC4)cccc32)cc1 (stereo not drawn) [WRENCHNOLOL],Kd,[8],1.8 µM
NS(=O)(=O)c1nnc(NC(=O)NC23CC4CC(CC(C4)C2)C3)s1,Activity,Mus musculus,47%
same,Ki,Carbonic anhydrase 2,0.013 µM
CCCCCCCCCCCCC/C=C/C(O)C(CO[C@@H]1O[C@H](CO)[C@@H](O[C@@H]2O[C@H](CO)[C@H](O[C@H]3O[C@H](CO)[C@H](O)[C@H](O)[C@H]3O)[C@H](O)[C@H]2O)[C@H](O)[C@H]1O)NC(=O)CC12CC3CC(CC(C3)C1)C2 (stereo partly drawn),IC50,[9],10 µM
N#C[C@@H]1C[C@@H]2C[C@@H]2N1C(=O)[C@@H](N)C12CC3CC(CC(O)(C3)C1)C2 [SAXAGLIPTIN ANHYDROUS],fraction unbound,[10],0.7
NC12CC3CC(CC(C3)C1)C2 [AMANTADINE],dose excreted,[11],65%
CC12C[C@@]34C=CC(=O)[C@@](C)(CCC(=O)Nc5c(O)ccc(C(=O)O)c5O)C3[C@H](CC1C4)O2 (stereo partly drawn) [PLATENSIMYCIN],MIC,Enterococcus faecium,0.2 µg/mL
same,MIC,Staphylococcus aureus,0.2 µg/mL
COC(=O)c1ccc(O)c(NC(=O)COc2ccc(C34CC5CC(CC(C5)C3)C4)cc2)c1,Activity,HCT-116,53%
C[C@@]1(CCC(=O)Nc2c(O)ccc(C(=O)O)c2O)C(=O)C=CC23CC4CC(CC(C4)C21)C3 (stereo partly drawn),MIC,Enterococcus faecium,1.3 µg/mL
same,MIC,Staphylococcus aureus,1.3 µg/mL
CC(=O)N(O)CCCCCNC(=O)CCC(=O)N(O)CCCCCNC(=O)CCC(=O)N(O)CCCCCN [DEFEROXAMINE],half-life,[12],5 min
NS(=O)(=O)c1nnc(NC(=O)CC23CC4CC(CC(C4)C2)C3)s1,Activity,Mus musculus,75%
CN(C)CCOCC(=O)NC12CC3CC(CC(C3)C1)C2 [TROMANTADINE],Kp,[13],19
same,dose excreted,[14],30%
CC(C)NCC(O)COc1ccc(CC(=O)OCCC23CC4CC(CC(C4)C2)C3)cc1 (stereo not drawn) [ADAPROLOL],half-life,[12],6.9 min
CC(N)C12CC3CC(CC(C3)C1)C2 (stereo not drawn) [RIMANTADINE],half-life,[15],1440 min
